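Method: 48-hour compound exposure of cells in 96-well plates, five concentrations, linear interpolation of endpoints. The concentration for full growth arrest is given as TGI.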
Columns and labels:
Assay in all cases: inhibition of tumour cell growth, NCI panel, 48 h
DU-145 prostate = system: DU-145 prostate
OVCAR-3 ovarian = system: OVCAR-3 ovarian
MDA-MB-231 breast = system: MDA-MB-231 breast
ACHN renal = system: ACHN renal
HL-60(TB) leukemia = system: HL-60(TB) leukemia
T-47D breast = system: T-47D breast
NCI-H460 lung = system: NCI-H460 lung
SK-MEL-28 melanoma = system: SK-MEL-28 melanoma
A498 renal = system: A498 renal
PC-3 prostate = system: PC-3 prostate
CAKI-1 renal = system: CAKI-1 renal
MOLT-4 leukemia = system: MOLT-4 leukemia
HT29 colon = system: HT29 colon
TK-10 renal = system: TK-10 renal
HOP-92 NSCLC = system: HOP-92 NSCLC
NCI-H23 lung = system: NCI-H23 lung
OVCAR-8 ovarian = system: OVCAR-8 ovarian
NCI-H226 lung = system: NCI-H226 lung
MCF7 breast = system: MCF7 breast
HCT-15 colon = system: HCT-15 colon
OVCAR-4 ovarian = system: OVCAR-4 ovarian
SNB-75 CNS = system: SNB-75 CNS
M14 melanoma = system: M14 melanoma
SR leukemia = system: SR leukemia
HCC-2998 colon = system: HCC-2998 colon
HCT-116 colon = system: HCT-116 colon
SNB-19 CNS = system: SNB-19 CNS
HOP-62 NSCLC = system: HOP-62 NSCLC
IGROV1 ovarian = system: IGROV1 ovarian
UACC-257 melanoma = system: UACC-257 melanoma
CCRF-CEM leukemia = system: CCRF-CEM leukemia
SF-268 CNS = system: SF-268 CNS
SW-620 colon = system: SW-620 colon
RXF 393 renal = system: RXF 393 renal
SF-539 CNS = system: SF-539 CNS
KM12 colon = system: KM12 colon
HS 578T breast = system: HS 578T breast
SF-295 CNS = system: SF-295 CNS
SK-MEL-5 melanoma = system: SK-MEL-5 melanoma
BT-549 breast = system: BT-549 breast
A549 NSCLC = system: A549 NSCLC
MDA-MB-435 = system: MDA-MB-435
LOX IMVI melanoma = system: LOX IMVI melanoma
EKVX NSCLC = system: EKVX NSCLC
MALME-3M melanoma = system: MALME-3M melanoma
SK-OV-3 ovarian = system: SK-OV-3 ovarian
UACC-62 melanoma = system: UACC-62 melanoma
786-0 renal = system: 786-0 renal
NCI/ADR-RES ovarian = system: NCI/ADR-RES ovarian
OVCAR-5 ovarian = system: OVCAR-5 ovarian
UO-31 renal = system: UO-31 renal
NCI-H522 lung = system: NCI-H522 lung
COLO 205 colon = system: COLO 205 colon
RPMI-8226 leukemia = system: RPMI-8226 leukemia
SN12C renal = system: SN12C renal
MDA-N = system: MDA-N
U251 CNS = system: U251 CNS
K-562 leukemia = system: K-562 leukemia
SK-MEL-2 melanoma = system: SK-MEL-2 melanoma
DLD-1 colon = system: DLD-1 colon
XF 498 CNS = system: XF 498 CNS
KM20L2 colon = system: KM20L2 colon
DMS 273 small cell lung = system: DMS 273 small cell lung
HOP-18 NSCLC = system: HOP-18 NSCLC
M19-MEL melanoma = system: M19-MEL melanoma
DMS 114 small cell lung = system: DMS 114 small cell lung

## Cc1cc2oc(C)c(S(=O)(=O)NC(=O)Nc3ccc(Cl)cc3)c(=O)c2c(=O)o1
DU-145 prostate
  TGI: > 100 µM
OVCAR-3 ovarian
  TGI: > 100 µM
MDA-MB-231 breast
  TGI: > 100 µM
ACHN renal
  TGI: > 100 µM
HL-60(TB) leukemia
  TGI: > 100 µM
T-47D breast
  TGI: > 100 µM
NCI-H460 lung
  TGI: > 100 µM
SK-MEL-28 melanoma
  TGI: > 100 µM
A498 renal
  TGI: > 100 µM
PC-3 prostate
  TGI: > 100 µM
CAKI-1 renal
  TGI: > 100 µM
MOLT-4 leukemia
  TGI: > 100 µM
HT29 colon
  TGI: > 100 µM
TK-10 renal
  TGI: > 100 µM
HOP-92 NSCLC
  TGI: > 100 µM
NCI-H23 lung
  TGI: > 100 µM
OVCAR-8 ovarian
  TGI: > 100 µM
NCI-H226 lung
  TGI: > 100 µM
MCF7 breast
  TGI: > 100 µM
HCT-15 colon
  TGI: > 100 µM
OVCAR-4 ovarian
  TGI: > 100 µM
SNB-75 CNS
  TGI: > 100 µM
M14 melanoma
  TGI: > 100 µM
SR leukemia
  TGI: > 100 µM
HCC-2998 colon
  TGI: > 100 µM
HCT-116 colon
  TGI: > 100 µM
SNB-19 CNS
  TGI: > 100 µM
HOP-62 NSCLC
  TGI: > 100 µM
IGROV1 ovarian
  TGI: > 100 µM
UACC-257 melanoma
  TGI: > 100 µM
CCRF-CEM leukemia
  TGI: > 100 µM
SF-268 CNS
  TGI: > 100 µM
SW-620 colon
  TGI: > 100 µM
RXF 393 renal
  TGI: > 100 µM
SF-539 CNS
  TGI: > 100 µM
KM12 colon
  TGI: > 100 µM
HS 578T breast
  TGI: > 100 µM
SF-295 CNS
  TGI: > 100 µM
SK-MEL-5 melanoma
  TGI: > 100 µM
BT-549 breast
  TGI: > 100 µM
A549 NSCLC
  TGI: > 100 µM
MDA-MB-435
  TGI: > 100 µM
LOX IMVI melanoma
  TGI: > 100 µM
EKVX NSCLC
  TGI: > 100 µM
MALME-3M melanoma
  TGI: > 100 µM
SK-OV-3 ovarian
  TGI: > 100 µM
UACC-62 melanoma
  TGI: > 100 µM
786-0 renal
  TGI: > 100 µM
NCI/ADR-RES ovarian
  TGI: > 100 µM
OVCAR-5 ovarian
  TGI: > 100 µM
UO-31 renal
  TGI: > 100 µM
NCI-H522 lung
  TGI: > 100 µM
COLO 205 colon
  TGI: > 100 µM
RPMI-8226 leukemia
  TGI: > 100 µM
SN12C renal
  TGI: > 100 µM
MDA-N
  TGI: > 100 µM
U251 CNS
  TGI: > 100 µM
K-562 leukemia
  TGI: > 100 µM
SK-MEL-2 melanoma
  TGI: > 100 µM

## O=C(O)c1ccccc1N=Nc1ccc2oc(=O)c(C(=O)Nc3ccccc3)cc2c1
OVCAR-3 ovarian
  TGI: 70.4 µM
ACHN renal
  TGI: > 100 µM
HL-60(TB) leukemia
  TGI: 66.9 µM
NCI-H460 lung
  TGI: > 100 µM
SK-MEL-28 melanoma
  TGI: > 100 µM
MOLT-4 leukemia
  TGI: > 100 µM
DLD-1 colon
  TGI: > 100 µM
HT29 colon
  TGI: > 100 µM
TK-10 renal
  TGI: > 100 µM
NCI-H23 lung
  TGI: > 100 µM
OVCAR-8 ovarian
  TGI: > 100 µM
NCI-H226 lung
  TGI: > 100 µM
XF 498 CNS
  TGI: > 100 µM
KM20L2 colon
  TGI: 83.9 µM
HCT-15 colon
  TGI: > 100 µM
SNB-75 CNS
  TGI: 98.3 µM
M14 melanoma
  TGI: > 100 µM
HCT-116 colon
  TGI: > 100 µM
SNB-19 CNS
  TGI: > 100 µM
DMS 273 small cell lung
  TGI: > 100 µM
HOP-62 NSCLC
  TGI: 97.7 µM
HOP-18 NSCLC
  TGI: > 100 µM
IGROV1 ovarian
  TGI: > 100 µM
UACC-257 melanoma
  TGI: 59.4 µM
CCRF-CEM leukemia
  TGI: > 100 µM
SW-620 colon
  TGI: > 100 µM
RXF 393 renal
  TGI: > 100 µM
SF-539 CNS
  TGI: > 100 µM
KM12 colon
  TGI: > 100 µM
SF-295 CNS
  TGI: > 100 µM
SK-MEL-5 melanoma
  TGI: 76.8 µM
A549 NSCLC
  TGI: > 100 µM
LOX IMVI melanoma
  TGI: > 100 µM
EKVX NSCLC
  TGI: > 100 µM
MALME-3M melanoma
  TGI: 70.3 µM
SK-OV-3 ovarian
  TGI: > 100 µM
UACC-62 melanoma
  TGI: 71.1 µM
786-0 renal
  TGI: > 100 µM
UO-31 renal
  TGI: > 100 µM
NCI-H522 lung
  TGI: > 100 µM
COLO 205 colon
  TGI: > 100 µM
RPMI-8226 leukemia
  TGI: > 100 µM
SN12C renal
  TGI: > 100 µM
U251 CNS
  TGI: > 100 µM
M19-MEL melanoma
  TGI: > 100 µM
K-562 leukemia
  TGI: > 100 µM
DMS 114 small cell lung
  TGI: 76.9 µM

From PubChem BioAssay (NCI)
